Test results as given in patent publication US11332470B2, “CXCR4 inhibitors and uses thereof” (X4 Pharmaceuticals, Inc., priority 2016, dated 2022).

Tests used:
in vitro = conditions: human, Caco-2, pH 7.4
Experimental: The goal of this assay was to evaluate the intestinal absorption potential of drug candidates using Caco-2 cell lines.
1. Prewarm Prewarm HBSS Buffer in 37° C. water bath
2. Sonicate Take compounds from −20° C., sonicate for a few minutes (no less than 1 minute)
• Donor solution buffer: For A-to-B Direction: HBSS buffer with 0.3% DMSO and 5 μM LY: add 150 μL DMSO and 50 μL LY (5 mM) into 50 ml HBSS buffer (pH 7.4). HBSS buffer with 0.1% DMSO and 5 μM LY: add 50 μL DMSO and 50 μL LY (5 mM) into 50 mL HBSS buffer (pH 7.4). For B-to-A Direction: HBSS buffer with 0.3% DMSO: add 150 μL DMSO into 50 ml HBSS buffer (pH 7.4). HBSS buffer with 0.1% DMSO: add 50 μL DMSO into 50 ml HBSS buffer (pH 7.4). Receiver Solution Buffer: For A-to-B Direction: Prepare HBSS buffer with 0.4% DMSO: add 200 μL DMSO into 50 ml HBSS buffer (pH 7.4). For B-to-A Direction: Prepare HBSS buffer with 0.4% DMSO and 5 μM LY: add 200 μL DMSO and 50 μL LY (5 mM) into 50 ml HBSS buffer (pH 7.4).
4. Measure TEER Take cell culture plate out of incubator, wash the cell monolayers with HBSS buffer, and then measure TEER values at Rm temperature. 5. Centrifuge Centrifuge the compound solution (from step 3) at 4000 rpm for 5 min before loading to donor chambers. 6. Dosing Add solution based on the volumes listed in the following table (make sure to take extra 100 μL of donor sample for TO as Backup).
7. Apical LYT0 samples To determine LY concentration in the apical chamber, take 100 μL sample from apical chambers into an opaque plate for LYT0. 8. Prewarm Prewarm apical and basolateral plates at 37° C. for about 5 min, then begin transport by placing the apical plate onto basolateral plate. 9. Incubation Keep the plates in incubator at 37° C. for 90 min. 10.
Prepare Working Solution in MeOH/H2O (1:1)
• Prepare 1×solution: 3 μL (20×)+57 μL of 0.4% DMSO HBSS+60 μL ACN with IS (Osalmid or Imipramine)−120 μL (1×) 11. Transport termination Separate the apical plate from the basolateral plate after 90-min incubation. 12. Measure LY Take 100 μL samples from basolateral plate to an opaque plate as LYT90. 13. Measure LY concentrations for LYT0 and LYT90 by Fluorometer (at excitation of 485 nm/emission of 535 nm). 14.
Study details: Test concentration 10 μM
Test systems: Caco-2/HBSS solution
Incubation conditions: 0, 90 min at 37° C.
Sample size: Duplicates (n=2)
Bioanalytical method: LC-MS/MS
For Millicell-24 Cell Culture Plates: surface area of the membrane=0.7 cm^2, VA=0.8 mL (A-to-B) or 0.4 mL (B-to-A)
The compound numbers correspond to the compound numbers in Table 1.

[1] = molecular target: T1, CXCR4 (Jurkat cells expressing CXCR4) (Homo sapiens, UniProt P61073); test: Chemokine (CXCL12-AF647) binding inhibition assay; conditions: CXCL12-AF647 25 ng/mL, read-out: IC50 CXCL-12 binding Jurkat
T1 construct: Jurkat cells expressing CXCR4; endogenous in cells; host or cells: Jurkat
Experimental: Chemokine (CXCL12-AF647) Binding Inhibition Assay
Jurkat cells expressing CXCR4 were washed once with assay buffer (Hanks' balanced salt solution with 20 mM HEPES buffer and 0.2% bovine serum albumin, pH 7.4) and then incubated for 15 min at room temperature with the test compounds diluted in assay buffer at dose-dependent concentrations. Subsequently, CXCL12-AF647 (25 ng/mL) was added to the compound-incubated cells. The cells were incubated for 30 min at room temperature. Thereafter, the cells were washed twice in assay buffer, fixed in 1% paraformaldehyde in PBS, and analyzed on the FL4 channel of a FACSCalibur flow cytometer equipped with a 635-nm red diode laser (Becton Dickinson, San Jose, Calif., USA).
The percentages of inhibition of CXCL12-AF647 binding were calculated according to the formula: [1−((MFI−MFINC)/(MFIPC−MFINC))]×100 where MFI is the mean fluorescence intensity of the cells incubated with CXCL12-AF647 in the presence of the inhibitor, MFINC is the mean fluorescence intensity measured in the negative control (i.e., autofluorescence of unlabeled cells), and MFIPC is the mean fluorescence intensity of the positive control (i.e., cells exposed to CXCL12-AF647 alone).

CXCR4 (U87.CXCR4 cells) = molecular target: T2, CXCR4 (U87.CXCR4 cells) (Homo sapiens, UniProt P61073); test: Intracellular CXCL-12-induced calcium mobilization assay (FLIPR); type: cell-based; conditions: CXCL-12 25-50 ng/mL, read-out: IC50 CXCL-12 Ca2+ flux U87.CXCR4+
T2 construct: expressed in transfected cells; host or cells: U87 (U87.CXCR4)
Experimental: Intracellular CXCL-12-Induced Calcium Mobilization Assay
Intracellular calcium mobilization induced by chemokines or chemokine-derived peptides were evaluated using a calcium responsive fluorescent probe and a FLIPR system. The CXCR-4 transfected U87 cell line (U87.CXCR4) cells were seeded in gelatine-coated black-wall 96-well plates at 20,000 cells per well and incubated for 12 hours. Cells were then loaded with the fluorescent calcium probe Fluo-2 acetoxymethyl at 4 μM final concentration in assay buffer (Hanks' balanced salt solution with 20 mM HEPES buffer and 0.2% bovine serum albumin, pH 7.4) for 45 min at 37° C. The intracellular calcium mobilization induced by the CXCL-12 (25-50 ng/mL) was then measured at 37° C. by monitoring the fluorescence as a function of time in all the wells simultaneously using a fluorometric imaging plate reader (FLIPR Tetra, Molecular Devices).

T2 sequence (P61073 whole entry): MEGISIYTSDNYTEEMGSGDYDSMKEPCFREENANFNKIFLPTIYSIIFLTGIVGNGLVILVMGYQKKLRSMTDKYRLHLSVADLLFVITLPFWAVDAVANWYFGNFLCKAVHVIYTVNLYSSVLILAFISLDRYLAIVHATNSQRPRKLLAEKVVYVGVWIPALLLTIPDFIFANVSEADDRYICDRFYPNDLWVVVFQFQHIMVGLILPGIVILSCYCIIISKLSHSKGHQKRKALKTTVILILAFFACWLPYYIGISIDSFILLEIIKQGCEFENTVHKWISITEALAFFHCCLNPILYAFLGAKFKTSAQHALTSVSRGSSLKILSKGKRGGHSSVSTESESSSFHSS
T1 sequence (P61073 whole entry): as above

SMILES | Papp A→B at 90 min, 10 μM (in vitro) [×10⁻⁶ cm/s] | Papp B→A at 90 min, 10 μM (in vitro) [×10⁻⁶ cm/s] | efflux ratio at 90 min, 10 μM (in vitro) | IC50 [1] [nM] | IC50 (CXCR4 (U87.CXCR4 cells)) [nM]
Cc1cccnc1C1CCCN1Cc1cn2c(CCC#N)cccc2n1 (stereo not shown) [Compound I-83] | 0.1 to 10 | > 30 | 0.1 to 10 | 100 to 1000 | ≥ 1000
Cc1cccnc1CN1CCCC1c1cn2c(N3CCN(C)CC3)cccc2n1 (stereo not shown) [Compound I-103] | 0.1 to 10 | > 30 | 0.1 to 10 | 0.01 to 100 | 0.01 to 100
Cc1cccnc1C1CCCN1Cc1nc2ccccc2n1CC1CCN(C)CC1 (stereo not shown) [Compound I-122] | 0.1 to 10 | > 30 | 0.1 to 10 | 0.01 to 100 | 0.01 to 100
Cc1cccnc1C1CCCN1Cc1cn2c(N3CCN(C4CC4)CC3)cccc2n1 (stereo not shown) [Compound I-32] | 0.1 to 10 | 10 to 30 | 0.1 to 10 | 100 to 1000 | 100 to 1000
CN1CCN(c2cccc3nc(CN4CCCC4c4nccc5ccccc45)cn23)CC1 (stereo not shown) [Compound I-14] | 0.1 to 10 | 10 to 30 | 0.1 to 10 | 0.01 to 100 | 100 to 1000
CN1CCN(c2cccc3nc(CN4CCCC4c4ccccn4)[nH]c23)CC1 (stereo not shown) [Compound I-44] | 10 to 30 | > 30 | 0.1 to 10 | 0.01 to 100 | 100 to 1000
CN1CCN(c2c(CN3CCCC3c3nccn3C)nc3ccccn23)CC1 (stereo not shown) [Compound I-69] | 0.1 to 10 | 10 to 30 | 10 to 30 | 0.01 to 100 | 0.01 to 100
Cc1cccnc1C1CCCN1Cc1nccn1CCCCN1CCOCC1 (stereo not shown) [Compound I-111] | 0.1 to 10 | 10 to 30 | 0.1 to 10 | 0.01 to 100 | ≥ 1000
Cc1cccnc1C1CCCCN1Cc1ccccc1-n1cccn1 (stereo not shown) [Compound I-2, 2-(1-(2-(1H-pyrazol-1-yl)benzyl)piperidin-2-yl)-3-methylpyridine] | > 30 | > 30 | 0.1 to 10 | ≥ 1000 | ≥ 1000
Cc1cccnc1C1CCCN1Cc1nc2cccc(N3CCN(C)CC3)n2c1CO (stereo not shown) [Compound I-8, (5-(4-methylpiperazin-1-yl)-2-((2-(3-methylpyridin-2-yl)pyrrolidin-1-yl)methyl)imidazo[1,2-a]pyridin-3-yl)methanol] | 0.1 to 10 | 10 to 30 | > 30 | 0.01 to 100 | 100 to 1000
c1ccc(C2CCCN2Cc2ncccc2-n2ccnc2)nc1 (stereo not shown) [Compound I-75] | 10 to 30 | > 30 | 0.1 to 10 | 100 to 1000 | ≥ 1000
c1ccc(C2CCCN2Cc2ccccc2-n2cccn2)nc1 (stereo not shown) [Compound I-65] | > 30 | > 30 | 0.1 to 10 | 100 to 1000 | ≥ 1000
CN1CCN(c2cccc3nc(CN4CCCC4c4nccs4)[nH]c23)CC1 (stereo not shown) [Compound I-49] | 10 to 30 | 10 to 30 | 0.1 to 10 | ≥ 1000 | ≥ 1000
CN1CCN(c2cccc3nc(C4CCCN4Cc4ccccn4)[nH]c23)CC1 (stereo not shown) [Compound I-104] | 0.1 to 10 | > 30 | 0.1 to 10 | 0.01 to 100 | 100 to 1000
Cc1cccnc1C1CCCN1Cc1nccn1CC1CCN(C2CC2)CC1 (stereo not shown) [Compound I-107] | 0.1 to 10 | 10 to 30 | 0.1 to 10 | 0.01 to 100 | 0.01 to 100
CN1CCN(c2c(C3CCCN3Cc3ncccn3)nc3ccccn23)CC1 (stereo not shown) [Compound I-102] | 0.1 to 10 | > 30 | > 30 | 100 to 1000 | ≥ 1000
Cc1cccnc1C1CCCN1Cc1nc2cccc(N3CCN(C)CC3)n2c1C (stereo not shown) [Compound I-46] | 0.1 to 10 | 10 to 30 | > 30 | 0.01 to 100 | 100 to 1000
N#CCCc1c(CN2CCCC2c2ccccn2)nc2ccccn12 (stereo not shown) [Compound I-82] | 10 to 30 | > 30 | 0.1 to 10 | 100 to 1000 | ≥ 1000
Cc1cccnc1C1CCCN1Cc1nccn1Cc1ccccn1 (stereo not shown) [Compound I-89] | 10 to 30 | > 30 | 0.1 to 10 | 100 to 1000 | ≥ 1000
CN1CCN(c2c(CN3CCCC3c3ccccn3)nc3cc(F)ccn23)CC1 (stereo not shown) [Compound I-62] | 0.1 to 10 | 10 to 30 | 0.1 to 10 | 0.01 to 100 | 0.01 to 100
